Experimental data from patent US11596641B2, “Methods and compositions for treating meibomian gland dysfunction” (priority 2020, dated 2023).
Where a name gives a salt, the structure may show the parent alone. Read-outs that look alike come from different tables or passages of the source.

Assay: pKa values
Format: physicochemical

Row | SMILES | pKa value (third printed) (third of three pKa values, hydrochloride) | pKa (first of three pKa values, read-out: pKa value (first given)) | pKa (second of three pKa values, read-out: pKa value) | pKa (third of three pKa values, read-out: pKa value (third printed))
1 | CN(C)c1ccc(O)c2c1C[C@H]1C[C@H]3[C@H](N(C)C)C(O)=C(C(N)=O)C(=O)[C@@]3(O)C(O)=C1C2=O [minocycline hydrochloride] | 9.3 | – | – | –
2 | CN(C)c1ccc(O)c2c1C[C@H]1C[C@H]3[C@H](N(C)C)C(O)=C(C(N)=O)C(=O)[C@@]3(O)C(O)=C1C2=O [minocycline] | – | 3.5 | 7.6 | 9.2
